{"source": "ChEMBL document CHEMBL4828722", "about": "“The synthesis and bioactivity of pyrrolo[2,3-d]pyrimidine derivatives as tyrosine kinase inhibitors for NSCLC cells with EGFR mutations” (Eur J Med Chem, 2021)", "key": {"HCC827": {"system": "HCC827", "experiment": "Potency index, ratio of avitinib IC50 to test compound IC50 for cytotoxicity against human HCC827 cells harboring EGFR del E746-A750 mutant assessed as reduction in cell viability measured after 48 hrs by CCK8 assay", "type": "functional"}, "[1]": {"experiment": "Selectivity index, ratio of IC50 for cytotoxicity against human HBE cells to IC50 for cytotoxicity against human HCC827 cells harboring EGFR del E746-A750 mutant assessed as reduction in cell viability measured after 48 hrs by CCK8 assay"}, "[2]": {"experiment": "Selectivity index, ratio of IC50 for cytotoxicity against human NCI-H460 cells harboring wild type EGFR to IC50 for cytotoxicity against human HCC827 cells harboring EGFR del E746-A750 mutant assessed as reduction in cell viability measured after 48 hrs by CCK8 assay"}}}
{"compound": "C=CC(=O)Nc1cccc(Oc2nc(Nc3ccc(N4CCN(C)CC4)c(N)c3)nc3[nH]ccc23)c1", "values": [{"measurement": "Ratio IC50", "setting": "HCC827", "value": 2}, {"measurement": "Selectivity Index", "setting": "[1]", "value": 493}, {"measurement": "Selectivity Index", "setting": "[2]", "value": 579.7}]}
